Holding throughout (assay type): binding
One assay has as its target T1, RPA1789 (Rhodopseudomonas palustris, UniProt Q6N8W4).
T1 construct: mature form, signal peptide removed; N-terminal 6xHis-TEV tag retained; E. coli
T1 sequence (Q6N8W4 27-385): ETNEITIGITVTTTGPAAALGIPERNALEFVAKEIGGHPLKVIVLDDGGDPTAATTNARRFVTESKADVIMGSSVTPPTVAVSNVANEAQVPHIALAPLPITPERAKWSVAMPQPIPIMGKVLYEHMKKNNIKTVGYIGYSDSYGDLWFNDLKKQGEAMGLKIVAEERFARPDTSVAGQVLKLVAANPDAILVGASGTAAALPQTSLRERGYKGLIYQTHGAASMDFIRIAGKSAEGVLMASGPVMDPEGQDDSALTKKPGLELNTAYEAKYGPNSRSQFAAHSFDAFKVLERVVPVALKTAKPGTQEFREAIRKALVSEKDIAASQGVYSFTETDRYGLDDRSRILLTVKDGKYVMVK
As to the kind of experiment: fluorescence thermal shift (SYPRO orange). The settings on record: 100x ligand over protein (5 or 10 µM protein); 100 mM HEPES, 150 mM NaCl, pH 7.5.

In the next assay the target is T2, RPA2014 (Rhodopseudomonas palustris, UniProt Q6N890).
T2 construct: gene TX73_010380; mature form, signal peptide removed; N-terminal 6xHis-TEV tag retained; E. coli
T2 sequence (Q6N890 31-371): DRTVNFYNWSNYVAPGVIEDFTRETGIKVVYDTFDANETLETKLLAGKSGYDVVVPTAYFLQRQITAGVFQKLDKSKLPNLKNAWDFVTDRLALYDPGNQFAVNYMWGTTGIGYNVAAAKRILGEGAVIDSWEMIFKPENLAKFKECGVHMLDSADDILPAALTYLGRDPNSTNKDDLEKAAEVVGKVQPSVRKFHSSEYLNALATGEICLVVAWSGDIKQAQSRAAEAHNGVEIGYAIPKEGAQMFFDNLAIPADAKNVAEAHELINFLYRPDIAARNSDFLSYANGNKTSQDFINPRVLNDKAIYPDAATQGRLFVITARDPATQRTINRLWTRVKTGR
As to the kind of experiment: fluorescence thermal shift (SYPRO orange). The settings on record: 100x ligand over protein (5 or 10 µM protein), 100 mM HEPES, 150 mM NaCl, pH 7.5.

For the next assay, the target named is T3, RPA0668 (hbaE) (Rhodopseudomonas palustris, UniProt G3XCQ4).
T3 construct: mature form, signal peptide removed; N-terminal 6xHis-TEV tag retained; E. coli
T3 sequence (G3XCQ4 entry or part of it): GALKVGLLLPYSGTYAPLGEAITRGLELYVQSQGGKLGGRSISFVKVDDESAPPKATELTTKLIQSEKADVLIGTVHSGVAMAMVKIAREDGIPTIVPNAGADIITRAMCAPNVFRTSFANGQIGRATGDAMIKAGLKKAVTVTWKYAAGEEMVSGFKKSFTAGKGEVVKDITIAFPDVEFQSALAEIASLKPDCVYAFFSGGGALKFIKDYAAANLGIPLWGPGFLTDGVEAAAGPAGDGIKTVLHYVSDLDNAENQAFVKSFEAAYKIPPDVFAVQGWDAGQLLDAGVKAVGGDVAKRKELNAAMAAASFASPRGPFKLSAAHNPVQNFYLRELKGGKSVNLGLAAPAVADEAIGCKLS
As to the kind of experiment: fluorescence thermal shift (SYPRO orange). The settings on record: 100x ligand over protein (5 or 10 µM protein); 100 mM HEPES, 150 mM NaCl, pH 7.5.

A further assay concerns the target T4, RPA0985 (Rhodopseudomonas palustris, UniProt Q6NB45).
T4 construct: mature form, signal peptide removed; N-terminal 6xHis-TEV tag retained; E. coli
T4 sequence (Q6NB45 23-390): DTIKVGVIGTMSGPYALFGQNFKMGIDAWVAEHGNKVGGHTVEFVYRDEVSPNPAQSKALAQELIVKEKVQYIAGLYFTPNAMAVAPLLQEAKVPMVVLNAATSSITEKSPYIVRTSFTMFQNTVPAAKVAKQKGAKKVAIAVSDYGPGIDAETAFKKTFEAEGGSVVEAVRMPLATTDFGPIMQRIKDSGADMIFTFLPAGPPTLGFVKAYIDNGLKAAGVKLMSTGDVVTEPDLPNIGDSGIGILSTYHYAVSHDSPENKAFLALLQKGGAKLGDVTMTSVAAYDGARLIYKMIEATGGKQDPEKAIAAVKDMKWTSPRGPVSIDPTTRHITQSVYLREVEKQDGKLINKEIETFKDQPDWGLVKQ
As to the kind of experiment: fluorescence thermal shift (SYPRO orange). The following applies: 100x ligand over protein (5 or 10 µM protein); 100 mM HEPES, 150 mM NaCl, pH 7.5.

For the next assay, the target named is T5, RPA4029 (Rhodopseudomonas palustris, UniProt Q6N2M1).
T5 construct: gene TX73_020875; mature form, signal peptide removed; N-terminal 6xHis-TEV tag retained; E. coli
T5 sequence (Q6N2M1 28-392): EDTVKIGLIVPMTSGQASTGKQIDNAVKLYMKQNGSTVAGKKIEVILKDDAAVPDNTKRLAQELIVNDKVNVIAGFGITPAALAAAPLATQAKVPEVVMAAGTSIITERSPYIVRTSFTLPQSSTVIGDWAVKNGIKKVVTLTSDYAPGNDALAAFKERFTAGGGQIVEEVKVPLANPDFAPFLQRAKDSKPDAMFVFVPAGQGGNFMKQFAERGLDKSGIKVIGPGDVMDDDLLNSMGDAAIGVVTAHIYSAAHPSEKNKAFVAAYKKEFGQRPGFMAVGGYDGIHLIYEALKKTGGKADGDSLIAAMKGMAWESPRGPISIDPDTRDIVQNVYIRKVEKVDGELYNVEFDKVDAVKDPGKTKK
As to the kind of experiment: fluorescence thermal shift (SYPRO orange). The settings on record: 100x ligand over protein (5 or 10 µM protein); 100 mM HEPES, 150 mM NaCl, pH 7.5.

Another assay has as its target T6, RPA0058 (Rhodopseudomonas palustris, UniProt Q6NDP7).
T6 construct: gene ugpB; mature form, signal peptide removed; N-terminal 6xHis-TEV tag retained; E. coli
T6 sequence (Q6NDP7 24-442): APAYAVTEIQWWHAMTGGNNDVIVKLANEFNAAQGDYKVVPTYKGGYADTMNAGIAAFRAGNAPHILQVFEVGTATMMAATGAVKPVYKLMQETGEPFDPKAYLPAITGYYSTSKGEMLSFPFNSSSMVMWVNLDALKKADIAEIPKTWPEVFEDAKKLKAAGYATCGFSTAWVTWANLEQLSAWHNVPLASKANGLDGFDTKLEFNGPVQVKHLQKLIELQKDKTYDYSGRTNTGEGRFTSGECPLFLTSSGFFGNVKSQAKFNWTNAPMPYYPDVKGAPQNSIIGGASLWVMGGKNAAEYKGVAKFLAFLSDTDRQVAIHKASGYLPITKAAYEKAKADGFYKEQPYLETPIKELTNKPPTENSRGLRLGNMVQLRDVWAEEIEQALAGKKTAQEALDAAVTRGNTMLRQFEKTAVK
As to the kind of experiment: fluorescence thermal shift (SYPRO orange). The settings on record: 100x ligand over protein (5 or 10 µM protein); 100 mM HEPES, 150 mM NaCl, pH 7.5.

For the next assay, the target named is T7, RPA4780 (Rhodopseudomonas palustris, UniProt Q6N0I2).
T7 construct: gene pstS; mature form, signal peptide removed; N-terminal 6xHis-TEV tag retained; E. coli
T7 sequence (Q6N0I2 22-336): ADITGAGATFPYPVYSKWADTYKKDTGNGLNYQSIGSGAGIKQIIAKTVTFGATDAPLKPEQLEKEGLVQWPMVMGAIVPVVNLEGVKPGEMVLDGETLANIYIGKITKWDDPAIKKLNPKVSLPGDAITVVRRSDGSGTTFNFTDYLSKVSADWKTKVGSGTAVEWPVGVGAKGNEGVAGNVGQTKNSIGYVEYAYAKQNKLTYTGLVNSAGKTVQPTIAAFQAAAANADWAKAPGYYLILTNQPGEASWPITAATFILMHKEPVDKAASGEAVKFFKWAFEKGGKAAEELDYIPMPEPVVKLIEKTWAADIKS
The following applies: 100x ligand over protein (5 or 10 µM protein); 100 mM HEPES, 150 mM NaCl, pH 7.5.

The next assay deals with T8, RPA3810 (Rhodopseudomonas palustris, UniProt Q6N384).
T8 construct: gene TX73_019730; mature form, signal peptide removed; N-terminal 6xHis-TEV tag retained; E. coli
T8 sequence (Q6N384 23-368): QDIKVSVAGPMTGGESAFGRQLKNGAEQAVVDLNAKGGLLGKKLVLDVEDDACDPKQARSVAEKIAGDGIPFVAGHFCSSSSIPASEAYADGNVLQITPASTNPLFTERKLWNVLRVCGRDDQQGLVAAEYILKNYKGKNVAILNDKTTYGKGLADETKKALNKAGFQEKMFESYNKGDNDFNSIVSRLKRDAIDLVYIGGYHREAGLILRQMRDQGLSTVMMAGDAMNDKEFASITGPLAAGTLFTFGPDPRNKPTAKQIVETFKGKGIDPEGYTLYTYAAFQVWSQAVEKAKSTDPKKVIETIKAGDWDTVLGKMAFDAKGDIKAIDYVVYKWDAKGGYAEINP
The assay can be described thus: fluorescence thermal shift (SYPRO orange). The settings on record: 100x ligand over protein (5 or 10 µM protein); 100 mM HEPES, 150 mM NaCl, pH 7.5.

In the case of `O=C(O)/C=C/c1ccccc1` [cinnamic acid], on RPA1789, the ΔTm result is “one protein bound p-coumaric acid, ferulic acid, and cinnamic acid with good affinities”.
With `NCCCNCCCCNCCCN` [spermine], the ΔTm entry on RPA2014 (low affinity) was “spermine still binds this protein with low affinity in the FTS assay”.
On to `O=C(O)c1ccc(O)cc1` [4-hydroxybenzoic acid], for which the ΔTm result is “closely related derivatives, 4-hydroxybenzoic acid, salicylate, and benzaldehyde” at RPA0668 (hbaE); 29.5 °C at RPA0985; 17 °C at RPA4029.
With `O=C(O)/C=C/c1ccc(O)cc1` [p-coumaric acid], at RPA1789, the ΔTm result was “one protein bound p-coumaric acid, ferulic acid, and cinnamic acid with good affinities”.
`NCCCCN` [putrescine]: the ΔTm result at RPA2014 was “indeed shifted with putrescine preferentially over spermine”.
As to `O=P(O)(O)OC[C@H](O)CO` [glycerol-3-phosphate], the ΔTm result at RPA0058 is “RPA0058 and RPA4780 exhibited specific stabilization by glycerol-3-phosphate and phosphate, respectively”.
`O=P(O)(O)O` [phosphate]: the ΔTm entry at RPA4780 was “RPA0058 and RPA4780 exhibited specific stabilization by glycerol-3-phosphate and phosphate, respectively”.
Turning to `COc1cc(/C=C/C(=O)O)ccc1O` [ferulic acid], the ΔTm entry at RPA1789 was “one protein bound p-coumaric acid, ferulic acid, and cinnamic acid with good affinities”.
As for `O=C(O)c1ccccc1O` [salicylic acid], the ΔTm entry at RPA0668 (hbaE) was “closely related derivatives, 4-hydroxybenzoic acid, salicylate, and benzaldehyde”.
As to `NCC(=O)O` [glycine], the ΔTm result at RPA3810 is “RPA3810, shifted primarily with amino acids with preferences for alanine, glycine and serine”.

One may read the ΔTm as the shift of the melting midpoint relative to a reference.
